Measurements as given in patent publication EP0500835B1, “A NOVEL QUINOLONE CARBOXYLIC ACID DERIVATIVE” (DAEWOONG PHARMACEUTICAL CO., LTD., priority 1990, dated 1992).
Converted amounts (≈) assume the structure as drawn. Like-named read-outs stand apart in the source and are kept apart here.

Columns and labels:
Assay type in all cases: cell-based
[1] = tested on: E. coli 1507E; experiment: In vitro antibacterial activity, MIC by agar dilution method; details: Escherichia coli, read-out: In vitro Antibacterial Activity, MIC
Procedure: (§1) The typical examples of the present compounds were tested for antimicrobial activity in vitro against twenty strains of Gram-positive and Gram-negative microorganisms.
(§2) The numerals in the table 1 show minimum inhibitory concentrations(MIC in µg/ml). The minimum inhibitory concentrations were determined according to the agar dilution method recommended by Japan Society of Chemotherapy[Chemotherapy., 29, 76 (1981)].

[2] = tested on: E. coli DC 0; experiment: as above; details: Escherichia coli, DC0, read-out: In vitro Antibacterial Activity, MIC
Procedure: as §1, §2

[3] = tested on: E. coli DC 2; experiment: as above; details: Escherichia coli
Procedure: as §1, §2

[4] = tested on: E. coli TEM; experiment: as above; details: Escherichia coli, read-out: In vitro Antibacterial Activity, MIC
Procedure: as §1, §2

[5] = tested on: K. oxytoca 1082E; experiment: as above; details: Klebsiella oxytoca, read-out: In vitro Antibacterial Activity, MIC
Procedure: as §1, §2

[6] = tested on: P. aeruginosa 1592E; experiment: as above; details: Pseudomonas aeruginosa, 1592E, read-out: In vitro Antibacterial Activity, MIC
Procedure: as §1, §2

[7] = tested on: P. aeruginosa 1771M; experiment: as above; details: Pseudomonas aeruginosa, read-out: In vitro Antibacterial Activity, MIC
Procedure: as §1, §2

[8] = tested on: P. aeruginosa 1771; experiment: as above; details: Pseudomonas aeruginosa, 1771, read-out: In vitro Antibacterial Activity, MIC
Procedure: as §1, §2

[9] = tested on: P. aeruginosa 9027; experiment: as above
Procedure: as §1, §2

[10] = tested on: S. aureus 285; experiment: as above; details: Staphylococcus aureus, 285, read-out: In vitro Antibacterial Activity, MIC
Procedure: as §1, §2

[11] = tested on: S. aureus 503; experiment: as above; details: Staphylococcus aureus, 503, read-out: In vitro Antibacterial Activity, MIC
Procedure: as §1, §2

[12] = tested on: S. aureus SG 511; experiment: as above; details: Staphylococcus aureus, SG511, read-out: In vitro Antibacterial Activity, MIC
Procedure: as §1, §2

[13] = tested on: S. faecium MD 86; experiment: as above; details: Enterococcus faecium
Procedure: as §1, §2

[14] = tested on: S. pyogenes A 308; experiment: as above; details: Streptococcus pyogenes
Procedure: as §1, §2

[15] = tested on: S. pyogenes A 77; experiment: as above; details: Streptococcus pyogenes, A77, read-out: In vitro Antibacterial Activity, MIC
Procedure: as §1, §2

[16] = tested on: Saphylococcus aureus 692E; experiment: Antibacterial activity for MRSA; details: Saphylococcus aureus 692E (MRSA)
Procedure: (§3) The compound of example 2 was orally administered to determine the LD50 for a group of male mice. […] The antibacterial activity for MRSA(Methicillin Resistant Staphyloccocus Aureus) was tested by the compound of example 2.

[17] = tested on: Staphylococcus aureus 121E; experiment: Antibacterial activity for MRSA; details: Staphylococcus aureus 121E (MRSA)
Procedure: as §3

[18] = tested on: Staphylococcus aureus 208E; experiment: Antibacterial activity for MRSA; details: Staphylococcus aureus 208E (MRSA)
Procedure: as §3

[19] = tested on: Staphylococcus aureus 256E; experiment: Antibacterial activity for MRSA; details: Staphylococcus aureus 256E (MRSA)
Procedure: as §3

[20] = tested on: Staphylococcus aureus 690E; experiment: Antibacterial activity for MRSA; details: Staphylococcus aureus 690E (MRSA)
Procedure: as §3

[21] = tested on: Staphylococcus aureus 693E; experiment: Antibacterial activity for MRSA; details: Staphylococcus aureus 693E (MRSA)
Procedure: as §3

[22] = tested on: Staphylococcus aureus 694E; experiment: Antibacterial activity for MRSA; details: Staphylococcus aureus 694E (MRSA)
Procedure: as §3

[23] = tested on: Staphylococcus aureus 695E; experiment: Antibacterial activity for MRSA; details: Staphylococcus aureus 695E (MRSA)
Procedure: as §3

[24] = tested on: Staphylococcus aureus 697E; experiment: Antibacterial activity for MRSA; details: Staphylococcus aureus 697E (MRSA)
Procedure: as §3

[25] = tested on: Staphylococcus aureus 701E; experiment: Antibacterial activity for MRSA; details: Staphylococcus aureus 701E (MRSA)
Procedure: as §3

[26] = tested on: Staphylococcus aureus 703E; experiment: Antibacterial activity for MRSA; details: Staphylococcus aureus 703E (MRSA)
Procedure: as §3

[27] = tested on: Staphylococcus aureus 705E; experiment: Antibacterial activity for MRSA; details: Staphylococcus aureus 705E (MRSA)
Procedure: as §3

[28] = tested on: Staphylococcus aureus 706E; experiment: Antibacterial activity for MRSA; details: Staphylococcus aureus 706E (MRSA)
Procedure: as §3

[29] = tested on: Staphylococcus aureus 707E; experiment: Antibacterial activity for MRSA; details: Staphylococcus aureus 707E (MRSA)
Procedure: as §3

[30] = tested on: Staphylococcus aureus 708E; experiment: Antibacterial activity for MRSA; details: Staphylococcus aureus 708E (MRSA)
Procedure: as §3

[31] = tested on: Staphylococcus aureus 711E; experiment: Antibacterial activity for MRSA; details: Staphylococcus aureus 711E (MRSA)
Procedure: as §3

[32] = tested on: Staphylococcus aureus 714E; experiment: Antibacterial activity for MRSA; details: Staphylococcus aureus 714E (MRSA)
Procedure: as §3

[33] = tested on: Staphylococcus aureus 752E; experiment: Antibacterial activity for MRSA; details: Staphylococcus aureus 752E (MRSA)
Procedure: as §3

[34] = tested on: Staphylococcus aureus 88 E; experiment: Antibacterial activity for MRSA; details: Staphylococcus aureus 88 E (MRSA)
Procedure: as §3

[35] = tested on: E. cloacae 1321E; experiment: In vitro antibacterial activity, MIC by agar dilution method; details: Enterobacter cloacae, 1321E, read-out: In vitro Antibacterial Activity, MIC
Procedure: as §1
(§4) The minimum inhibitory concentrations were determined according to the agar dilution method recommended by Japan Society of Chemotherapy[Chemotherapy., 29, 76 (1981)].

[36] = tested on: E. cloacae P99; experiment: as above; details: Enterobacter cloacae, P99, read-out: In vitro Antibacterial Activity, MIC
Procedure: as §1, §4

[37] = tested on: E. coli O 55; experiment: as above; details: Escherichia coli, O55, read-out: In vitro Antibacterial Activity, MIC
Procedure: as §1, §4

[38] = tested on: K. aerogenes 1522E; experiment: as above; details: Klebsiella aerogenes, 1522E, read-out: In vitro Antibacterial Activity, MIC
Procedure: as §1, §4

[39] = tested on: S. typhimurium; experiment: as above; details: Salmonella enterica, TYPHIMURIUM, read-out: In vitro Antibacterial Activity, MIC
Procedure: as §1, §4

Compound: O=C(O)c1cn(C2CC2)c2cc(N3CCNCC3)c(F)cc2c1=O [CIP, Ciprofloxacin, reference compound]
- MIC ([1]; E. coli 1507E, agar dilution method): 0.049 µg/mL (≈ 0.148 µM)
- MIC [2]: 0.195 µg/mL (≈ 0.589 µM)
- MIC ([3]; DC2, E. coli DC 2, agar dilution method, read-out: In vitro Antibacterial Activity, MIC): 0.098 µg/mL (≈ 0.296 µM)
- MIC ([4]; E. coli TEM, agar dilution method): 0.098 µg/mL (≈ 0.296 µM)
- MIC ([5]; K. oxytoca 1082E, agar dilution method): 0.002 µg/mL (≈ 0.00604 µM)
- MIC [6]: 0.195 µg/mL (≈ 0.589 µM)
- MIC ([7]; P. aeruginosa 1771M, agar dilution method): 0.049 µg/mL (≈ 0.148 µM)
- MIC [8]: 0.195 µg/mL (≈ 0.589 µM)
- MIC ([9]; Pseudomonas aeruginosa, P. aeruginosa 9027, agar dilution method, read-out: In vitro Antibacterial Activity, MIC): 0.098 µg/mL (≈ 0.296 µM)
- MIC [10]: 0.195 µg/mL (≈ 0.589 µM)
- MIC [11]: 0.391 µg/mL (≈ 1.18 µM)
- MIC [12]: 0.195 µg/mL (≈ 0.589 µM)
- MIC ([13]; MD86, S. faecium MD 86, agar dilution method, read-out: In vitro Antibacterial Activity, MIC): 0.781 µg/mL (≈ 2.36 µM)
- MIC ([14]; A308, S. pyogenes A 308, agar dilution method, read-out: In vitro Antibacterial Activity, MIC): 1.56 µg/mL (≈ 4.72 µM)
- MIC [15]: 0.195 µg/mL (≈ 0.589 µM)
- Antibacterial Activity for MRSA [16]: 0.195 µg/mL
- Antibacterial Activity for MRSA [17]: 0.391 µg/mL
- Antibacterial Activity for MRSA [18]: 0.195 µg/mL
- Antibacterial Activity for MRSA [19]: 0.391 µg/mL
- Antibacterial Activity for MRSA [20]: 0.195 µg/mL
- Antibacterial Activity for MRSA [21]: 0.391 µg/mL
- Antibacterial Activity for MRSA [22]: 0.391 µg/mL
- Antibacterial Activity for MRSA [23]: 0.391 µg/mL
- Antibacterial Activity for MRSA [24]: 0.195 µg/mL
- Antibacterial Activity for MRSA [25]: 0.391 µg/mL
- Antibacterial Activity for MRSA [26]: 0.195 µg/mL
- Antibacterial Activity for MRSA [27]: 0.391 µg/mL
- Antibacterial Activity for MRSA [28]: 0.391 µg/mL
- Antibacterial Activity for MRSA [29]: 0.391 µg/mL
- Antibacterial Activity for MRSA [30]: 0.098 µg/mL
- Antibacterial Activity for MRSA [31]: 0.098 µg/mL
- Antibacterial Activity for MRSA [32]: 0.195 µg/mL
- Antibacterial Activity for MRSA [33]: 0.195 µg/mL
- Antibacterial Activity for MRSA [34]: 0.391 µg/mL

Compound: CSCC1CCN(c2cc3c(cc2F)c(=O)c(C(=O)O)cn3C2CC2)C1 (stereo not drawn) [Example 1, 1-cyclopropyl-6-fluoro-7-(3-methylthiomethylpyrrolidinyl)-1,4-dihydro-4-oxo-3-quinolinecarboxylic acid]
- MIC ([1]; 1507E): 1.56 µg/mL (≈ 4.15 µM)
- MIC [2]: 3.12 µg/mL (≈ 8.3 µM)
- MIC ([3]; DC2, read-out: In vitro Antibacterial Activity, MIC): 0.781 µg/mL (≈ 2.07 µM)
- MIC [4]: 0.391 µg/mL (≈ 1.04 µM)
- MIC ([5]; 1082E): 0.098 µg/mL (≈ 0.26 µM)
- MIC [6]: 1.56 µg/mL (≈ 4.15 µM)
- MIC ([7]; 1771M): 0.391 µg/mL (≈ 1.04 µM)
- MIC [8]: 0.781 µg/mL (≈ 2.07 µM)
- MIC ([9]; Pseudomonas aeruginosa, 9027, read-out: In vitro Antibacterial Activity, MIC): 1.56 µg/mL (≈ 4.15 µM)
- MIC [10]: 0.025 µg/mL (≈ 0.0664 µM)
- MIC [11]: 0.025 µg/mL (≈ 0.0664 µM)
- MIC [12]: 0.025 µg/mL (≈ 0.0664 µM)
- MIC ([13]; MD86, read-out: In vitro Antibacterial Activity, MIC): 0.781 µg/mL (≈ 2.07 µM)
- MIC ([14]; A308, read-out: In vitro Antibacterial Activity, MIC): 1.56 µg/mL (≈ 4.15 µM)
- MIC [15]: 0.781 µg/mL (≈ 2.07 µM)
- MIC [35]: 0.195 µg/mL (≈ 0.518 µM)
- MIC [36]: 0.195 µg/mL (≈ 0.518 µM)
- MIC [37]: 0.025 µg/mL (≈ 0.0664 µM)
- MIC [38]: 0.391 µg/mL (≈ 1.04 µM)
- MIC [39]: 0.195 µg/mL (≈ 0.518 µM)
